Experimental data reported in patent US20190231844A1, “ORAL APPLICATION OF THIOPEPTCIN” (NANJING BIOTICA PHARMACEUTICAL COMPANY, priority 2015, published 2019).
Values after ≈ are worked out from the molar mass of the structure shown.

Tests used:
C. difficile ATCC 9689 = test: MIC by broth dilution method (CLSI M11-A7); assay type: cell-based; conditions: Clostridioides difficile, ATCC9689, read-out: Sensitivity of C. difficile (MIC)
[1] = tested on: clinically isolated strain LCN 001; test: MIC by broth dilution method (CLSI M11-A7); assay type: cell-based; conditions: Clostridioides difficile, LCN001, read-out: Sensitivity of C. difficile (MIC)
[2] = tested on: Reduced-sensitivity strain to Vancomycin C. difficile LCN 0012; test: MIC by broth dilution method (CLSI M11-A7); assay type: cell-based; conditions: Clostridioides difficile
[3] = tested on: Reduced-sensitivity strain to Metronidazole C. difficile LCN 0048; test: MIC by broth dilution method (CLSI M11-A7); assay type: cell-based; conditions: Clostridioides difficile
[4] = tested on: Clindamycin-resistant strain C. difficile LCN 0027; test: MIC by broth dilution method (CLSI M11-A7); assay type: cell-based; conditions: Clostridioides difficile, read-out: Sensitivity of C. difficile (MIC)
[5] = tested on: Erythrocin-resistant strain C. difficile LCN 0081; test: MIC by broth dilution method (CLSI M11-A7); assay type: cell-based; conditions: Clostridioides difficile, read-out: Sensitivity of C. difficile (MIC)
[6] = Pharmacokinetics of thiopeptcin after oral (intragastric) administration, plasma by LC-MS/MS; assay type: in vivo; conditions: after intragastric administration in rats, all doses and time points
Experimental: 30 μl of blood or urine sample was added into 90 μl of methanol containing 5 ng/ml verapamil. After vortexing for 3 min and centrifuging at 14,000 rpm for 5 min, 80 μl of supernatant was taken for LC-MS/MS analysis.
Conditions for LC were as follows: • Column: Waters Symmetry 300 C18 3.5 μm 2.1*100 mm; • Mobile phase A: 10 mM ammonium acetate+0.02% aqueous ammonia solution; mobile phase B: methanol; • Duration of analysis: 5.2 min; injection volume: 5 μL; column temperature: 25° C.; gradient elution:
Conditions for MS/MS analysis were as follows: • Mass Spectrometer: Positive Ion Mode (Agilent 6460B) • Detection of ion pairs: Thiopeptcin: 1437.3-172.0, fragment=135, CE=22; • Verapamil (internal standard): 455.2→165.1, fragment=135, CE=25; • Mass spectrometry parameters: gas temp at 350 ° C.; gas flow at 10 L/min; nebulizer of 40 psi; sheath gas flow at 10 L/min and sheath gas heater at 400° C.
Preparation of thiopeptcin: Certain amount of thiopeptcin was dissolved in a mixed solvent of pH 5.0 containing 10% PEG400, 1% Tween 80 and 5 mg/ml citric acid. The solution was shaken to be clear for intragastric administration.
Male rats were divided into 4 groups with high, medium, and low doses according to experimental purposes. The high dose group was 50 mg/kg, the middle dose group was 25 mg/kg, the low-1 dose group was 5 mg/kg and the low-2 dose group was 1 mg/kg. […]

For CN[C@H](CC(C)C)C(=O)N[C@H]1C(=O)N[C@@H](CC(N)=O)C(=O)N[C@H]2C(=O)N[C@H]3C(=O)N[C@H](C(=O)N[C@H](C(=O)O)c4cc(O)cc(O)c4-c4cc3ccc4O)[C@H](O)c3ccc(c(Cl)c3)Oc3cc2cc(c3O[C@@H]2O[C@H](CO)[C@@H](O)[C@H](O)[C@H]2O[C@H]2C[C@](C)(N)[C@H](O)[C@H](C)O2)Oc2ccc(cc2Cl)[C@H]1O [Vancomycin, reference compound], the MIC (C. difficile ATCC 9689) was 0.25 µg/mL (≈ 0.173 µM), the MIC [1] was 0.5 µg/mL (≈ 0.345 µM) and the MIC [2] was 4 to 8 µg/mL (≈ 2.76 to 5.52 µM). It also gave an MIC [3] of 0.8 to 3 µg/mL (≈ 0.552 to 2.07 µM), an MIC [4] of 1.5 µg/mL (≈ 1.04 µM) and an MIC [5] of 1.5 µg/mL (≈ 1.04 µM).
C=C(NC(=O)c1csc(-c2nc3c(cc2O)-c2nc(cs2)C(=O)N[C@@H]([C@@H](C)O)C(=O)N/C(=C(\C)OC)c2nc(cs2)C(=O)N[C@@H]2c4nc(cs4)C(=O)N[C@@H](COC(=O)c4c5c6c(cccc6n4O)COC(=O)[C@@H](OC4C[C@](C)(O)[C@H](N(C)C)[C@H](C)O4)C2OC5)c2nc-3cs2)n1)C(N)=O (stereo partly shown) [Thiopeptcin] gave an MIC (C. difficile ATCC 9689) of 0.005 µg/mL (≈ 0.00348 µM), an MIC [1] of 0.025 µg/mL (≈ 0.0174 µM) and an MIC [2] of 0.025 to 0.05 µg/mL (≈ 0.0174 to 0.0348 µM). The MIC [3] was 0.005 to 0.01 µg/mL (≈ 0.00348 to 0.00696 µM), the MIC [4] was 0.025 µg/mL (≈ 0.0174 µM) and the MIC [5] was 0.005 µg/mL (≈ 0.00348 µM). For the same compound, the “plasma concentration of thiopeptcin (below limit of quantification)” value [6] was under 1 ng/mL.
